Assay [1] deals with T1, Tyrosine-protein kinase JAK3 (Homo sapiens) (UniProt P52333).
T1 sequence (whole entry): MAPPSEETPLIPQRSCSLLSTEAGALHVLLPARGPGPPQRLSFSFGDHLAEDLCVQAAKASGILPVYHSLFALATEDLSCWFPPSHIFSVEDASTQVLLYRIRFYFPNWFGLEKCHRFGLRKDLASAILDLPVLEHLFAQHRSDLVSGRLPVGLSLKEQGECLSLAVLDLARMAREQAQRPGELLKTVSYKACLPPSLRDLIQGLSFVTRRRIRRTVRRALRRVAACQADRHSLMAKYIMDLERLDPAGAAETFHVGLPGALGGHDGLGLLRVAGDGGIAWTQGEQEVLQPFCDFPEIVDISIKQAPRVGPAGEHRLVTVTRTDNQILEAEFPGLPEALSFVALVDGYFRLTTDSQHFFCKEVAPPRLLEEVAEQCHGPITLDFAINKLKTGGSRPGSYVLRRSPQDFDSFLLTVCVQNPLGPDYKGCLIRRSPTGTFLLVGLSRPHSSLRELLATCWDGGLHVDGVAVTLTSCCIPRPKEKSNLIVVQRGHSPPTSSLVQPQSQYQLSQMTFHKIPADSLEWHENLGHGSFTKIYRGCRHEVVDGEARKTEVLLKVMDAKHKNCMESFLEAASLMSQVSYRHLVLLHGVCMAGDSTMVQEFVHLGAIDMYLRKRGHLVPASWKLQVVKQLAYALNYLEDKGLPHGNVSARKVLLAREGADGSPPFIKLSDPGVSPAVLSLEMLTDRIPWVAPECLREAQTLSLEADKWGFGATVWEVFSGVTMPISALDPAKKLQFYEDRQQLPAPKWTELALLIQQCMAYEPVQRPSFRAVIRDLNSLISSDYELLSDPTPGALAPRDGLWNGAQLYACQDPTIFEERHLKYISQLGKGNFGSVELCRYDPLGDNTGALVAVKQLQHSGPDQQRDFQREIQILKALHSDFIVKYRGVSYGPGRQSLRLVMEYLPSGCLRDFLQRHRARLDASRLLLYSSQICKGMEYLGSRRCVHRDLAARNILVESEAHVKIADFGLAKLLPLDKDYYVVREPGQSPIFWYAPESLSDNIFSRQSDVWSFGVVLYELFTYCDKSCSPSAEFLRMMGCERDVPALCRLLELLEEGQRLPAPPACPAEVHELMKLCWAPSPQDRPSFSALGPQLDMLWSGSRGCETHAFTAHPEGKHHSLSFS
The assay is described as follows: Inhibition of recombinant human GST-tagged JAK3 (781 to 1124 residues) expressed in baculovirus expression system using Tyr 06 as substrate at 0.1 uM incubated for 60 mins by Z'-lyte assay relative to control.

Assay [2] addresses Protein kinase C beta type (Homo sapiens) (UniProt P05771). The assay is described as follows: Inhibition of recombinant human His-tagged full length PKCbeta1 expressed in insect expression system using Ser/Thr 07 as substrate at 0.1 uM incubated for 60 mins by Z'-lyte assay relative to control.
Assay [3] has the same target. The assay is described as follows: Inhibition of recombinant human GST-tagged full length PKCbeta2 expressed in insect expression system using Ser/Thr 07 as substrate at 0.1 uM incubated for 60 mins by Z'-lyte assay relative to control.
Assay [4] deals with T2, Mitogen-activated protein kinase 13 (Homo sapiens) (UniProt O15264).
T2 sequence (whole entry): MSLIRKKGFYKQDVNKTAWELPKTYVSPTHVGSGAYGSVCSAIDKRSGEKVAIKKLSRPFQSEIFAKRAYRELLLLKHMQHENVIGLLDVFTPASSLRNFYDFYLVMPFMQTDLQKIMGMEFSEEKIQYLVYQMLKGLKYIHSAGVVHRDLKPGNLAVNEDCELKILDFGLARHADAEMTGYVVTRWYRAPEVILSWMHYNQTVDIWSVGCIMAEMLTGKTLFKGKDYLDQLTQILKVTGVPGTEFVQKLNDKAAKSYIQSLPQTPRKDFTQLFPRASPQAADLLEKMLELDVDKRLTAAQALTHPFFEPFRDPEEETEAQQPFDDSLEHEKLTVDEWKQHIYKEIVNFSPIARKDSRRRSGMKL
Kind of assay: Inhibition of recombinant human His-tagged full length p38 delta expressed in baculovirus expression system using Ser/Thr 03 as substrate at 0.1 uM incubated for 60 mins by Z'-Lyte assay relative to control.

For assay [5], the target named is Insulin-like growth factor 1 receptor (Homo sapiens) (UniProt P08069). The assay is described as follows: Inhibition of recombinant human His-tagged IGF1R (960 to 1397 residues) expressed in baculovirus expression system using Tyr 01 as substrate at 0.1 uM incubated for 60 mins by Z'-Lyte assay relative to control.
Insulin-like growth factor 1 receptor (Homo sapiens), sequence (P08069 31-736 limits assumed): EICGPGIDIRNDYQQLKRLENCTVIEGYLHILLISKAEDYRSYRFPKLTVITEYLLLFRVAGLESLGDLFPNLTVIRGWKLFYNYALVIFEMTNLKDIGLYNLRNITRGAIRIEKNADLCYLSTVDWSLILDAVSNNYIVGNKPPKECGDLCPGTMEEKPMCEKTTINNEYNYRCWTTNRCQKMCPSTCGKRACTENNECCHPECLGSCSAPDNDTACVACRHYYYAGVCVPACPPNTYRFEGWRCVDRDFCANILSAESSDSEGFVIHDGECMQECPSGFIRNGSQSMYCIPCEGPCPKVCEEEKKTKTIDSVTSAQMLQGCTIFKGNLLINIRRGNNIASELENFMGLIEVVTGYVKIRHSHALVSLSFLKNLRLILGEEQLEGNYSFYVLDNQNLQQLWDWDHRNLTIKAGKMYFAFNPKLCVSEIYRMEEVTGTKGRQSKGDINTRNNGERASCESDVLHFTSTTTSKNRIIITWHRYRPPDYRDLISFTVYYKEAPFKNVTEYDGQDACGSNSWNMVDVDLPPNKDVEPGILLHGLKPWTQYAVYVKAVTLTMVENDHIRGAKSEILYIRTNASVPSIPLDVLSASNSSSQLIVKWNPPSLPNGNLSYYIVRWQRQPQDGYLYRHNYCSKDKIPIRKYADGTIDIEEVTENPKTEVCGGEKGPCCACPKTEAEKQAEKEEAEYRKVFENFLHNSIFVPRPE
Insulin-like growth factor 1 receptor (Homo sapiens), sequence (P08069 741-1367 limits assumed): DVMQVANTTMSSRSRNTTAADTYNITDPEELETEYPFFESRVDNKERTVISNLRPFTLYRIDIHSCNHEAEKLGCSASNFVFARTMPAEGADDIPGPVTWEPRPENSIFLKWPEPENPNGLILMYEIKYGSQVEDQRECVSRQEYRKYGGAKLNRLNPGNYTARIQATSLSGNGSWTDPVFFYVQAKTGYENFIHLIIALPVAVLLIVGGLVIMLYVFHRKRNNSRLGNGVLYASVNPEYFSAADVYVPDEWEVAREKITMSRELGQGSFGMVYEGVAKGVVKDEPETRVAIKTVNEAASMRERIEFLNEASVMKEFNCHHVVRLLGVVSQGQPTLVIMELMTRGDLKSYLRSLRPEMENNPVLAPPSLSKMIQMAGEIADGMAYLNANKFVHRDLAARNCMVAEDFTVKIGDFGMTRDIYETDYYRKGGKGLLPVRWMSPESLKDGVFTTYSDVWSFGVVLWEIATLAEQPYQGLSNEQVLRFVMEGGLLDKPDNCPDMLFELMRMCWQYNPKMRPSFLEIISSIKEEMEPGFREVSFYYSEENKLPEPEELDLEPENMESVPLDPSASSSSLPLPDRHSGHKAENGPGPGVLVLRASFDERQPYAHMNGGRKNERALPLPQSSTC
Assay [6] addresses Calcium/calmodulin-dependent protein kinase type 1D (Homo sapiens) (UniProt Q8IU85). Kind of assay: Inhibition of recombinant human His-tagged full length CAMK1delta expressed in baculovirus expression system using Ser/Thr 25 as substrate at 0.1 uM incubated for 60 mins by Z'-Lyte assay relative to control.
The target of assay [7] is Mitogen-activated protein kinase 3 (Homo sapiens) (UniProt P27361). The assay is described as follows: Inhibition of recombinant human GST-tagged full length ERK1 expressed in Escherichia coli expression system using Ser/Thr 03 as substrate at 0.1 uM incubated for 60 mins by Z'-Lyte assay relative to control.
Mitogen-activated protein kinase 3 (Homo sapiens), sequence (P27361 whole entry): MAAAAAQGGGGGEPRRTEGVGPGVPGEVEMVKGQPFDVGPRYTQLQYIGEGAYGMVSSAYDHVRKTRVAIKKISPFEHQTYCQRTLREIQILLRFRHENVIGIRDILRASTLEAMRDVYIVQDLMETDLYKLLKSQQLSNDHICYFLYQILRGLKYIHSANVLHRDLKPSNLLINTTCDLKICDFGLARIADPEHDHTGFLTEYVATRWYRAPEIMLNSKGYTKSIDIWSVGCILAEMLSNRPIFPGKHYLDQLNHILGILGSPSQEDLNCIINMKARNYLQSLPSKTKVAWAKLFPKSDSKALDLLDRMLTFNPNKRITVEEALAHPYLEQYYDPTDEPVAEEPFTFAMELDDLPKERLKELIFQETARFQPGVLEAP
Assay [8] has as its target Serine/threonine-protein kinase B-raf (Homo sapiens) (UniProt P15056). The assay is described as follows: Inhibition of recombinant human GST-tagged full length BRAF expressed in baculovirus expression system using Ser/Thr 03 as substrate at 0.1 uM incubated for 60 mins by Z'-Lyte assay relative to control.
Assay [9] concerns the target Mitogen-activated protein kinase 1 (Homo sapiens) (UniProt P28482). The assay is described as follows: Inhibition of recombinant human GST-tagged full length ERK2 expressed in baculovirus expression system using Ser/Thr 03 as substrate at 0.1 uM incubated for 60 mins by Z'-Lyte assay relative to control.

As a reminder, the inhibition is the drop in the measured response relative to a control, in per cent.

Structures are written as SMILES.

Protein kinase C beta type (Homo sapiens), sequence (P05771 2-671 limits assumed): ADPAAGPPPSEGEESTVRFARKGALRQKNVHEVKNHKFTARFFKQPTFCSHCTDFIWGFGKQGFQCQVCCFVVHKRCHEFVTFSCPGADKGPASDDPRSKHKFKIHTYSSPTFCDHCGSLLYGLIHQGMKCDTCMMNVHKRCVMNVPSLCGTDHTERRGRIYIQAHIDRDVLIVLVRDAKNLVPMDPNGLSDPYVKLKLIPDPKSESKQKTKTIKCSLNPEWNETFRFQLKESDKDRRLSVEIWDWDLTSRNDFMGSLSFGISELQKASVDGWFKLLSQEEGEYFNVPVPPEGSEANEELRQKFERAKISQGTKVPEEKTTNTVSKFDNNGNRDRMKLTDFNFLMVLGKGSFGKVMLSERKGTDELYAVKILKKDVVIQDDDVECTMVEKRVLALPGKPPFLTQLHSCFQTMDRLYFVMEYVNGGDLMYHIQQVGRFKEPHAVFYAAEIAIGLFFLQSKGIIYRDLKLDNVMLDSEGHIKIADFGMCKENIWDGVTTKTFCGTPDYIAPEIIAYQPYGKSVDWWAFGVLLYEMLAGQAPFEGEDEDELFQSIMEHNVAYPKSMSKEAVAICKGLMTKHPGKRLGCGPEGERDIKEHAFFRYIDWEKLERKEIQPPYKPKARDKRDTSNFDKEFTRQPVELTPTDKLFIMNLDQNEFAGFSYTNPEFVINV
Mitogen-activated protein kinase 1 (Homo sapiens), sequence (P28482 whole entry): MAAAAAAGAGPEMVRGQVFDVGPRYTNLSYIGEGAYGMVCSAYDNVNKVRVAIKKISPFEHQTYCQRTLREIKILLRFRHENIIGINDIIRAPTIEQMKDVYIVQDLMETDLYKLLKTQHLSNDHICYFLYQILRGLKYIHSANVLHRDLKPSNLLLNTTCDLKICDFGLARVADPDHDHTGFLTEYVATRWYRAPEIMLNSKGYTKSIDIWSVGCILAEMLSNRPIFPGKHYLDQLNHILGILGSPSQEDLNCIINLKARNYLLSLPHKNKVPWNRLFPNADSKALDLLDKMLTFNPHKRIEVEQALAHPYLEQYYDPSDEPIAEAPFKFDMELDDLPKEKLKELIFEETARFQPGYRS
Calcium/calmodulin-dependent protein kinase type 1D (Homo sapiens), sequence (Q8IU85 whole entry, looked up): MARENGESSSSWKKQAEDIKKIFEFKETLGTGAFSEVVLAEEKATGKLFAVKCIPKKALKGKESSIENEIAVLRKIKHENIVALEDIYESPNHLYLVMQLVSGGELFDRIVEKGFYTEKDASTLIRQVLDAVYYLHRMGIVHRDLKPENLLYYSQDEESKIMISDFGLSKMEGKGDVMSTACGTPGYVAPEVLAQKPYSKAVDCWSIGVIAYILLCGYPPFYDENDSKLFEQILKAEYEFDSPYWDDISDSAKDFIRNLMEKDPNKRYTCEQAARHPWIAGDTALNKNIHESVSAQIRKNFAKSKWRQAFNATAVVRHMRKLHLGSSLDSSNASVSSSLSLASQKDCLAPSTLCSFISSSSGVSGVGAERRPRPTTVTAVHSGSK
Serine/threonine-protein kinase B-raf (Homo sapiens), sequence (P15056 whole entry): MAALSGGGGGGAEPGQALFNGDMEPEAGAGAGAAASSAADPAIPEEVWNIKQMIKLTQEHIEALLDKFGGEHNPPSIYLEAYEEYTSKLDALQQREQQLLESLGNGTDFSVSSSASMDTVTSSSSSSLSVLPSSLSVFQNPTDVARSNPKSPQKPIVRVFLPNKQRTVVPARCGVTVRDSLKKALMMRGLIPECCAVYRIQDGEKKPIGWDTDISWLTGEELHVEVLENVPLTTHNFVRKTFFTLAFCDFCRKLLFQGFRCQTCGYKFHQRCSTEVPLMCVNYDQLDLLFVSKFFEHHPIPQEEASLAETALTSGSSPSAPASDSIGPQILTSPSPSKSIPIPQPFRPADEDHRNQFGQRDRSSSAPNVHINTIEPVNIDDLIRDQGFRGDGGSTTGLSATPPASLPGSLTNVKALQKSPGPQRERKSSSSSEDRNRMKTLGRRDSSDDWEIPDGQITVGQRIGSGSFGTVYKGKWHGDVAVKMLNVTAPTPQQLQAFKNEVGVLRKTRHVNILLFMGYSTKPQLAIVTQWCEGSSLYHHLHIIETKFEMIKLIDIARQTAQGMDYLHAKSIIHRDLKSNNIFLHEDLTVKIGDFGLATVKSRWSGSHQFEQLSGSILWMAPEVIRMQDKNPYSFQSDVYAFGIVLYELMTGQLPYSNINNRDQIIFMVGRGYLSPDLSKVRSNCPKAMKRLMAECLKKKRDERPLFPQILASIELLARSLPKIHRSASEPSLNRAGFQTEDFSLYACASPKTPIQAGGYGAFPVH

For `O=C(Nc1c[nH]nc1-c1cc(Cl)ccc1OC(F)F)c1cnn2cccnc12`, the inhibition in [1] is 95%; in assay [2], 24%; in [3] it was 21%; in assay [4], 10%; in assay [5], 9%; in [6] it was 8%. Also, the values for the inhibition in assay [7], in assay [8] and in assay [9] were 5%, 1% and 1%, respectively.

As to `Cn1cc(NC(=O)c2cnn3cccnc23)c(-c2cc(Cl)ccc2OC(F)F)n1`, the inhibition was determined as 98% in [1]; 2% in assay [2]; 12% in assay [3]; 0% in assay [4]; 8% in assay [5]; 6% in assay [6]. In addition, the inhibition in assay [7] stood at 4%; in assay [8], 5%; in assay [9], 4%.

Consider `O=C(Nc1c[nH]nc1-c1cc2ccccc2cc1OC(F)F)c1cnn2cccnc12`, for which the inhibition in [1] came out at 94%; in [2], 13%; in [3], 17%; in [4], 6%; in [5], 5%; in assay [6], 15%. Further, the results for the inhibition in [7], in assay [8] and in assay [9] were 0%, 4% and -4%, respectively.

The values are drawn from ChEMBL document CHEMBL4665643 (Bioorg Med Chem Lett, 2019).
